Data as given in patent US4313943A, “7-Chloro-2,3-dihydro-5-phenyl-1-propargyl-1H-1,4-benzodiazepine-2-one, and a pharmaceutical composition thereof” (priority 1972, dated 1982).

How the values were obtained:
Assay type in all cases: in vivo
[1] = Anti-convulsant activity in the mouse (convulsions induced by 1,5-pentamethylenetetrazole); conditions: 30 min before pentamethylenetetrazole s.c.
Experimental: The inhibition of convulsions induced by 1,5-pentamethylenetetrazole was tested by the Clen method. The test compounds were administered orally to the mice, in the doses shown in Table 3, in the form of suspensions in 1% sodium carboxymethyl cellulose solution, and 30 minutes later the test animals were injected subcutaneously with […] of 1,5-pentamethylenetetrazole. The number of mice protected from lethal extensorial tonic spasms, per group of 10 test animals, was recorded.

[2] = Potentiation of narcosis (hexobarbitone sodium) in the mouse, Winter method; conditions: hexobarbitone sodium 80 mg/kg i.p., control 33.3
Experimental: The Winter method was used, in which a state of narcosis is induced by the intraperitoneal administration of 80 mg/kg of hexobarbitone sodium, and is assessed by the loss of the righting reflex in the test animal. […] orally to the animals, in doses shown in Table 4, as suspensions in 1% sodium carboxymethyl cellulose solution; and the prolongation of narcosis in the animals thus treated was observed, by comparison with controls which received only the hexobarbitone administration.

[3] = Hypnotic activity comparison (Janssen 1959)
Experimental: Toxicity in test animals to the test compounds in terms of LD50 after oral and intraperitoneal administration was determined according to the procedure of Litchfield and Wilcoxan (1949) and the hypnotic effect on test animals was determined in accordance with the method of Janssen (1959).

[4] = Modifications in the electrocorticogram (ECoG) of unanesthetized animals, R index
Experimental: Twenty-four hours prior to the test, the surface of a test animal's skull was exposed and stainless steel electrodes were screwed through the lamina externa to make contact with the dura matter in the frontal, parietal and occipital regions, on both sides of the median and transverse sutures. The ECoG was recorded on a REEGA MINI HUIT (Alvar Electronic) encephalograph with a transverse circuit, with bi-frontal, bi-parietal and bi-occipital leads and a longitudinal circuit, with fronto-pariental and parieto-occipital leads on both left and right. One track was used to record respiration, with leads from two steel needles placed under the shin, on either side of the thorax.
Some test animals were kept in restraint cases placed in a relatively soundproof room and some were left free to move in metal cases measuring 40×50×30 cm, which were also kept in a relatively quiet environment.
The activity of the test compounds studied was judged on the one hand by the pattern of spontaneous electrogenesis, especially by the relative degree to which the three basic rhythms of the ECoG in the animals were represented; the theta rhythm (4-8 c/sec.), predominant and characteristic of the state of wakefulness in the posterior regions; bursts of rapid spiked waves (alpha rhythm, 9-15 c/sec.) recorded in the course of diffused wakefulness, and slow waves (delta rhythm, 0.5-3 c/sec.) which are absent in a state of wakefulness except in pathological conditions or in the presence of medicinal substances, a rhythm characteristic of slow-wave sleep. The rapid, low-voltage beta rhythm, not very characteristic of the ECoG in the test animals used and primarily superimposed on the other rhythms, was not analyzed.
Possible modifications in cortical reactivity were also investigated, using two types of stimulation, one comprised an auditory stimulus (whistle blasts) and the other a nociceptive stimulus delivered to the cutaneous nerve endings by pinching the dorsal skin with Kocher's clamps.
To the foregoing qualitative analysis, a quantitative analysis concerning the evolution of spontaneous electrogenesis under the influence of test compounds 1 and 4 was added. The activity of the two compounds was judged by variations in an "R" index, defined as the ratio between the theta waking rhythm, slow waves and bursts of rapid spiked waves. Initially, R was evaluated quantitatively on a scale from 0 to 4 and after this initial estimate, variations in the R index were rated on a scale from 0 to 5 as follows:
1. Maintenance of the value calculated in making the reference tracking (basal value) 0 since variation is nil.
2. Reduction in basal values
(a) reduction of basal value by one-half -1.
(b) observed value between 1/2 and 1/5 of basal value -2.
(c) observed value between 1/5 and 1/10 of basal value -3.
(d) observed value between 1/10 and 1/20 of basal value -4.
(e) observed value lower than 1/20 of basal value, reflecting maximum perturbation of spontaneous ECoG and expressing either a pathological condition or a state of slow-wave sleep, with the absence of theta rhythms and the exclusive presence of slow waves and/or bursts of rapid spiked waves -5.
Once the various values were allocated to each animal, the mean of these values were calculated for each experimental period. From these means, calculations were made of the percentages of variation as compared to a theoretical maximum value of -5 for each experimental period. The percentage for each period was calculated every 30 minutes for 7 hours, with a theoretical total of -10 per hour, then between 7 and 48 hours (theoretical total […]) and between the time of administering the test compound and the 48th hour (theoreticaltotal -90). Variations of 10% were not regarded as significant. All dosages were administered intragastrically through the esophageal tube. […]

[5] = 7.5 mg/kg intragastric, 2 Hours
[6] = 7.5 mg/kg intragastric, 3 Hours
[7] = 7.5 mg/kg intragastric, 4 Hours
[8] = 7.5 mg/kg intragastric, 5 Hours
[9] = 7.5 mg/kg intragastric, 6 Hours
[10] = 7.5 mg/kg intragastric, 7 Hours
[11] = 7.5 mg/kg intragastric, 48 Hours (7-48 h)
[12] = 7.5 mg/kg intragastric, After 48 Hours (0-48 h total)
[13] = 15.0 mg/kg intragastric, 1 Hour
[14] = 15.0 mg/kg intragastric, 2 Hours
[15] = 15.0 mg/kg intragastric, 3 Hours
[16] = 15.0 mg/kg intragastric, 4 Hours
[17] = 15.0 mg/kg intragastric, 5 Hours
[18] = 15.0 mg/kg intragastric, 6 Hours
[19] = 15.0 mg/kg intragastric, 7 Hours
[20] = 15.0 mg/kg intragastric, 48 Hours (7-48 h)
[21] = 15.0 mg/kg intragastric, After 48 Hours (0-48 h total)
[22] = 30.0 mg/kg intragastric, 1 Hour
[23] = 30.0 mg/kg intragastric, 2 Hours
[24] = 30.0 mg/kg intragastric, 3 Hours
[25] = 30.0 mg/kg intragastric, 4 Hours
[26] = 30.0 mg/kg intragastric, 5 Hours
[27] = 30.0 mg/kg intragastric, 6 Hours
[28] = 30.0 mg/kg intragastric, 7 Hours
[29] = 30.0 mg/kg intragastric, 48 Hours (7-48 h)
[30] = 30.0 mg/kg intragastric, After 48 Hours (0-48 h total)

C#CCN1C(=O)CN=C(c2ccccc2)c2cc(Cl)ccc21 [Compound 1, 7-chloro-2,3-dihydro-5-phenyl-1-propargyl-1H-1,4-benzodiazepin-2-one]
No. of Animals Protected ([1]; 0.5 mg/kg oral): 0/10
No. of Animals Protected ([1]; 1.0 mg/kg oral): 5/10
No. of Animals Protected ([1]; 2.0 mg/kg oral): 9/10
Duration of narcosis ([2]; 1.0 mg/kg oral): 70.7 min
Duration of narcosis ([2]; 2.0 mg/kg oral): 111.3 min
ED50 ([3]; Table 11, species not given): 857 mg/kg
hypnotic activity compared with Compounds 3 or 4 ([3]; in vivo): lower hypnotic activity
duration of effect on spontaneous electrogenesis ([4]; 1.5 mg/kg): 2 h
latency of the effects ([4]; 1.5 mg/kg): 21 min
average duration of effect on spontaneous electrogenesis ([4]; 3.75 mg/kg): 4 h
R index variation, Mean ([4]; 7.5 mg/kg intragastric, 1 Hour): -7.5
R index, % of Variation ([4]; 7.5 mg/kg intragastric, 1 Hour): -50.0%
R index variation, Mean [4, 5]: -6.0
R index, % of Variation [4, 5]: -60.0%
R index variation, Mean [4, 6]: -4.5
R index, % of Variation [4, 6]: -45.0%
R index variation, Mean [4, 7]: -4.0
R index, % of Variation [4, 7]: -40.0%
R index variation, Mean [4, 8]: -3.0
R index, % of Variation [4, 8]: -30.0%
R index variation, Mean [4, 9]: -2.0
R index, % of Variation [4, 9]: -20.0%
R index variation, Mean [4, 10]: -1.5
R index, % of Variation [4, 10]: -15.0%
R index variation, Mean [4, 11]: -0.5
R index, % of Variation [4, 11]: -3.3%
R index variation, Mean [4, 12]: -29.0
R index, % of Variation [4, 12]: -32.2%
R index variation, Mean [4, 13]: -11.5
R index, % of Variation [4, 13]: -76.7%
R index variation, Mean [4, 14]: -7.0
R index, % of Variation [4, 14]: -70.0%
R index variation, Mean [4, 15]: -5.5
R index, % of Variation [4, 15]: -55.0%
R index variation, Mean [4, 16]: -5.5
R index, % of Variation [4, 16]: -55.0%
R index variation, Mean [4, 17]: -4.0
R index, % of Variation [4, 17]: -40.0%
R index variation, Mean [4, 18]: -2.0
R index, % of Variation [4, 18]: -20.0%
R index variation, Mean [4, 19]: -2.0
R index, % of Variation [4, 19]: -20.0%
R index variation, Mean [4, 20]: +1.5
R index, % of Variation [4, 20]: +10.0%
R index variation, Mean [4, 21]: -36.0
R index, % of Variation [4, 21]: -40.0%
Cortical reactivity induced by exteroceptive stimulation ([4]; 30 mg/kg): remained unchanged
R index variation, Mean [4, 22]: -8.66
R index, % of Variation [4, 22]: -57.7%
R index variation, Mean [4, 23]: -6.99
R index, % of Variation [4, 23]: -69.9%
R index variation, Mean [4, 24]: -6.99
R index, % of Variation [4, 24]: -69.9%
R index variation, Mean [4, 25]: -6.33
R index, % of Variation [4, 25]: -63.3%
R index variation, Mean [4, 26]: -4.33
R index, % of Variation [4, 26]: -43.3%
R index variation, Mean [4, 27]: -1.32
R index, % of Variation [4, 27]: -13.2%
R index variation, Mean [4, 28]: -0.99
R index, % of Variation [4, 28]: -9.9%
R index variation, Mean [4, 29]: -1.66
R index, % of Variation [4, 29]: -11.1%
R index variation, Mean [4, 30]: -37.3
R index, % of Variation [4, 30]: -41.4%
duration of effects on spontaneous electrogenesis ([4]; 7.5, 15 and 30 mg/kg): at least 5 hours
